Test results: patent US4946957A, “Anti-tumor DC-52 derivatives” (Kyowa Hakko Kogyo Co., Ltd., priority 1986, dated 1990)
Read-outs that look alike come from different tables or passages of the source.

How the values were obtained:
[1] = test system: lymphocytic leukemia P-388; test: Anti-tumor activity against lymphocytic leukemia P-388 (i.p. implanted, single i.p. dose); type: in vivo, male CDF mice; settings: Mus musculus, P388, ip, read-out: T/C
Method: The experiment was carried out in the following manner.
Five male CDF mice each having a weight of about 22 g were used for each group as test animals, and 1×10^6 cells of lymphocytic leukemia P-388 tumor were implanted intraperitoneally into the test animals. After 24 hours, 0.2 ml of phosphate-buffered physiological saline containing a test compound was administered once intraperitoneally. The life-prolongingeffect of the compound was represented by T/C.

[2] = Acute toxicity (single i.p. administration); settings: mouse, in vivo, ip, ddy mice, method of Behrens-Kolber
Method: Five ddy mice were used for each group as test animals, and each test compound was administered once intraperitoneally to the respective groups of animals. LD50 was calculated from the death-rate of each group according to the method of Behrens-Kolber.

[3] = test system: lymphocytic leukemia P-388; settings: in words; Japanese Published Unexamined Patent Application No. 170189/82; cited from earlier work
a variety of bacteria = settings: in words; Japanese Published Unexamined Patent Application No. 170189/82; cited from earlier work
[4] = in words; Japanese Published Unexamined Patent Application No. 210086/84; cited from earlier work
[5] = dose 12.5 mg/kg, single i.p., 24 hours after implantation of 1×10^6 P-388 cells, life-prolonging effect
[6] = dose 25 mg/kg, single i.p., 24 hours after implantation of 1×10^6 P-388 cells, life-prolonging effect

COc1ccc(Cl)c2c1C(CO)N1C(C#N)C3CC(C(=O)O)C(C1C2)N3C (stereo not shown) [Compound 1]
response vs control in vivo at 12.5 mg/kg ([1]; 24 h): 123%
LD50 [2]: 50 mg/kg

COc1ccc(Cl)c2c1C1COC3C4CC(C(=O)O)C(C(C2)N13)N4C (stereo not shown) [Compound 2]
response vs control in vivo at 12.5 mg/kg [1, 5]: 140%

COc1ccc(Br)c2c1C(CO)N1C(C#N)C3CC(C(=O)O)C(C1C2)N3C (stereo not shown) [Compound 3]
LD50 [2]: 50 mg/kg

COc1ccc(Br)c2c1C1COC3C4CC(C(=O)O)C(C(C2)N13)N4C (stereo not shown) [Compound 4]
response vs control in vivo at 12.5 mg/kg [1, 5]: 150%

COc1ccc(I)c2c1C(CO)N1C(C#N)C3CC(C(=O)O)C(C1C2)N3C (stereo not shown) [Compound 5]
response vs control in vivo at 50 mg/kg ([1]; 24 h): 131%
LD50 [2]: 100 mg/kg

COc1ccc(I)c2c1C1COC3C4CC(C(=O)O)C(C(C2)N13)N4C (stereo not shown) [Compound 6]
response vs control in vivo at 25 mg/kg [1, 6]: 124%

COc1ccc(C=O)c2c1C(CO)N1C(C#N)C3CC(C(=O)O)C(C1C2)N3C (stereo not shown) [Compound 7]
response vs control in vivo at 200 mg/kg ([1]; dose 200 mg/kg, single i.p., 24 hours after implantation of 1×10^6 P-388 cells, life-prolonging effect): 138%

COc1ccc(C#N)c2c1C(CO)N1C(C#N)C3CC(C(=O)O)C(C1C2)N3C (stereo not shown) [Compound 9]
response vs control in vivo at 25 mg/kg ([1]; 24 h): 140%
LD50 [2]: > 100 mg/kg

COc1ccc(C#N)c2c1C1COC3C4CC(C(=O)O)C(C(C2)N13)N4C (stereo not shown) [Compound 10]
LD50 [2]: > 50 mg/kg

COc1ccc(O)c2c1C(CO)N1C(C#N)C3CC(C(=O)O)C(C1C2)N3C (stereo not shown) [Compound 11]
response vs control in vivo at 25 mg/kg [1, 6]: 142%

COc1cccc2c1C1COC3C4CC(C(=O)O)C(C(C2)N13)N4C (stereo not shown) [DC-52]
anti-tumor activity against lymphocytic leukemia P-388 and the like [3]: has anti-tumor activity against lymphocytic leukemia P-388 and the like
antibacterial activity (a variety of bacteria): shows antibacterial activity against a variety of bacteria

COc1cccc2c1C(CO)N1C(C#N)C3CC(C(=O)O)C(C1C2)N3C (stereo not shown) [DX-52-1]
anti-tumor activity [4]: having anti-tumor activity
